Measured values taken from patent US7138361B2, “Herbicidal heterocycles” (E. I. du Pont de Nemours and Company, priority 2000, dated 2006).

What was measured:
Type in all cases: in vivo
[1] = tested on: Surinam grass (Brachiaria decumbens); test: Test B postemergence
Outline: (§1)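 Pre: seeded pots sprayed, chemical in non-phytotoxic solvent/surfactant mix. Post: plants 2–18 cm, 1–4 leaf, same formulation. Greenhouse 13–15 d; visual % control vs untreated, 0–100 scale.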

[2] = tested on: barnyardgrass (Echinochloa crus-galli); test: Test B postemergence
Outline: as §1

[3] = tested on: blackgrass (Alopecurus myosuroides); test: Test B postemergence
Outline: as §1

[4] = tested on: cocklebur (Xanthium strumarium); test: Test B postemergence
Outline: as §1

[5] = tested on: crabgrass (Digitaria sanguinalis); test: Test B postemergence; settings: Rate 125 g/ha, scale 0 to 100, 0 no effect, 100 complete control
Outline: as §1

[6] = tested on: lambsquarters (Chenopodium album); test: Test B postemergence; settings: Rate 125 g/ha, scale 0 to 100, 0 no effect, 100 complete control
Outline: as §1

[7] = tested on: morning glory (Ipomoea hederacea); test: Test B postemergence; settings: Rate 125 g/ha, scale 0 to 100, 0 no effect, 100 complete control
Outline: as §1

[8] = tested on: pigweed (Amaranthus retroflexus); test: Test B postemergence; settings: Rate 125 g/ha, scale 0 to 100, 0 no effect, 100 complete control
Outline: as §1

wild oat (Avena fatua) = test: Test B postemergence; settings: Rate 125 g/ha, scale 0 to 100, 0 no effect, 100 complete control
Outline: as §1

[9] = tested on: Surinam grass (Brachiaria decumbens); test: Test B preemergence
Outline: as §1

[10] = tested on: barnyardgrass (Echinochloa crus-galli); test: Test B preemergence
Outline: as §1

[11] = tested on: cocklebur (Xanthium strumarium); test: Test B preemergence
Outline: as §1

corn (Zea mays) = test: Test B preemergence
Outline: as §1

[12] = tested on: crabgrass (Digitaria sanguinalis); test: Test B preemergence
Outline: as §1

[13] = tested on: giant foxtail (Setaria faberii); test: Test B preemergence
Outline: as §1

[14] = tested on: lambsquarters (Chenopodium album); test: Test B preemergence
Outline: as §1

[15] = tested on: morning glory (Ipomoea hederacea); test: Test B preemergence
Outline: as §1

[16] = tested on: pigweed (Amaranthus retroflexus); test: Test B preemergence
Outline: as §1

rice (Oryza saliva) [17] = test: Test B preemergence
Outline: as §1

[18] = tested on: velvetleaf (Abutilon theophrasti); test: Test B preemergence
Outline: as §1

[19] = tested on: barnyardgrass (Echinochloa crus-galli); test: Test C flooded paddy test; settings: for Barnyardgrass plant response rating: Flooded Paddy, Rate 500 g/ha, scale 0 to 100, 0 no effect, 100 complete control; for Plant response rating, Barnyardgrass / Plant response rating (scale 0 to 100), Barnyardgrass: flooded paddy test; for Plant response rating, Barnyardgrass: scale 0 to 100 (0 no effect, 100 complete control); for Plant response rating (scale 0 to 100), Barnyardgrass: Rate 62 g/ha, visually evaluated after 12 to 14 days, 0 = no effect, 100 = complete control
Outline: (§2)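 Each species was cultivated to 2 leaves in flooded paddy pots, then treated. After a greenhouse period of 12–14 days, the plants were scored visually relative to controls from 0 (no effect) to 100 (complete control).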

[20] = tested on: duck salad (Heteranthera limosa); test: Test C flooded paddy test; settings: for Ducksalad plant response rating: Flooded Paddy, Rate 500 g/ha, scale 0 to 100, 0 no effect, 100 complete control; for Plant response rating, Ducksalad / Plant response rating (scale 0 to 100), Ducksalad: flooded paddy test; for Plant response rating, Ducksalad: scale 0 to 100 (0 no effect, 100 complete control); for Plant response rating (scale 0 to 100), Ducksalad: Rate 62 g/ha, visually evaluated after 12 to 14 days, 0 = no effect, 100 = complete control
Outline: as §2

rice (Oryza saliva) [21] = test: Test C flooded paddy test; settings: for Rice plant response rating: Flooded Paddy, Rate 500 g/ha, scale 0 to 100, 0 no effect, 100 complete control; for Plant response rating, Rice / Plant response rating (scale 0 to 100), Rice: flooded paddy test; for Plant response rating, Rice: scale 0 to 100 (0 no effect, 100 complete control); for Plant response rating (scale 0 to 100), Rice: Rate 62 g/ha, visually evaluated after 12 to 14 days, 0 = no effect, 100 = complete control
Outline: as §2

[22] = tested on: smallflower flatsedge (Cyperus difformis); test: Test C flooded paddy test; settings: for Flatsedge plant response rating: Flooded Paddy, Rate 500 g/ha, scale 0 to 100, 0 no effect, 100 complete control; for Plant response rating, Flatsedge / Plant response rating (scale 0 to 100), Flatsedge: flooded paddy test; for Plant response rating, Flatsedge: scale 0 to 100 (0 no effect, 100 complete control); for Plant response rating (scale 0 to 100), Flatsedge: Rate 62 g/ha, visually evaluated after 12 to 14 days, 0 = no effect, 100 = complete control
Outline: as §2

Nightshade = test: Test C preemergence; settings: Rate 500 g/ha, visual evaluation after 12 to 14 days
Sunflower = test: Test C preemergence; settings: Rate 250 g/ha, scale 0 to 100, 0 no effect, 100 complete control
[23] = Rate 125 g/ha, scale 0 to 100, 0 no effect, 100 complete control
[24] = Rate 500 g/ha, scale 0 to 100, 0 is no effect, 100 is complete control, 13 to 15 days
[25] = Preemergence, Rate 500 g/ha, scale 0 to 100, 0 no effect, 100 complete control
[26] = preemergence, Rate 125 g/ha, scale of 0 to 100 where 0 is no effect and 100 is complete control, 13 to 15 days

**Q.** CC(C)(C)c1ccn(C2OCN(c3cccc(OC(F)F)c3)C2=O)n1 (stereo not drawn) [Compound 133] was tested. Which “Plant response rating, Surinam grass” value [1, 23] did it give?
**A.** 0

**Q.** And the “Plant response rating, Surinam grass” value [1, 24]?
**A.** 40

**Q.** What about the “Plant response rating, Barnyardgrass” value [2, 23] of the same molecule?
**A.** 80

**Q.** What about the “Plant response rating, Barnyardgrass” value [2, 24] of the same molecule?
**A.** 100

**Q.** And the “Plant response rating, Blackgrass” value [3, 23]?
**A.** 0

**Q.** What about the “Plant response rating, Blackgrass” value [3, 24] of the same molecule?
**A.** 0

**Q.** What about the “Plant response rating, Cocklebur” value [4, 23] of the same molecule?
**A.** 10

**Q.** And the “Plant response rating, Cocklebur” value [4, 24]?
**A.** 30

**Q.** What about the “Plant response rating, Crabgrass” value [5] of the same molecule?
**A.** 40

**Q.** And the “Plant response rating, Lambsquarters” value [6]?
**A.** 100

**Q.** And the “Plant response rating, Morningglory” value [7]?
**A.** 0

**Q.** And the “Plant response rating, Pigweed” value [8]?
**A.** 80

**Q.** And the “Plant response rating, Wild Oat” value (wild oat (Avena fatua))?
**A.** 0

**Q.** What about the “Plant response rating, Surinam grass” value [9, 25] of the same molecule?
**A.** 100

**Q.** What about the “Plant response rating, Surinam grass” value [9, 26] of the same molecule?
**A.** 100

**Q.** What about the “Plant response rating, Barnyardgrass” value [10, 25] of the same molecule?
**A.** 100

**Q.** What about the “Plant response rating, Barnyardgrass” value [10, 26] of the same molecule?
**A.** 100

**Q.** And the “Plant response rating, Cocklebur” value [11, 25]?
**A.** 0

**Q.** And the “Plant response rating, Cocklebur” value [11, 26]?
**A.** 0

**Q.** What about the “Plant response rating, Corn” value (corn (Zea mays); [25]) of the same molecule?
**A.** 90

**Q.** What about the “Plant response rating, Corn” value (corn (Zea mays); [26]) of the same molecule?
**A.** 0

**Q.** What about the “Plant response rating, Crabgrass” value [12, 25] of the same molecule?
**A.** 100

**Q.** What about the “Plant response rating, Crabgrass” value [12, 26] of the same molecule?
**A.** 100

**Q.** And the “Plant response rating, Foxtail, Giant” value [13, 25]?
**A.** 100

**Q.** What about the “Plant response rating, Foxtail, Giant” value [13, 26] of the same molecule?
**A.** 100

**Q.** And the “Plant response rating, Lambsquarters” value [14, 25]?
**A.** 100

**Q.** What about the “Plant response rating, Lambsquarters” value [14, 26] of the same molecule?
**A.** 100

**Q.** What about the “Plant response rating, Morningglory” value [15, 25] of the same molecule?
**A.** 0

**Q.** And the “Plant response rating, Morningglory” value [15, 26]?
**A.** 0

**Q.** What about the “Plant response rating, Pigweed” value [16, 25] of the same molecule?
**A.** 100

**Q.** And the “Plant response rating, Pigweed” value [16, 26]?
**A.** 100

**Q.** And the “Plant response rating, Rice” value (rice (Oryza saliva) [17]; [25])?
**A.** 100

**Q.** What about the “Plant response rating, Rice” value (rice (Oryza saliva) [17]; [26]) of the same molecule?
**A.** 90

**Q.** What about the “Plant response rating, Velvetleaf” value [18, 26] of the same molecule?
**A.** 0

**Q.** And the “Barnyardgrass plant response rating” value [19]?
**A.** 100

**Q.** And the “Plant response rating, Barnyardgrass” value ([19]; Rate 125 g/ha)?
**A.** 90

**Q.** What about the “Plant response rating, Barnyardgrass” value ([19]; Rate 250 g/ha) of the same molecule?
**A.** 100

**Q.** And the “Plant response rating (scale 0 to 100), Barnyardgrass” value [19]?
**A.** 90

**Q.** What about the “Ducksalad plant response rating” value [20] of the same molecule?
**A.** 100

**Q.** And the “Plant response rating, Ducksalad” value ([20]; Rate 125 g/ha)?
**A.** 100

**Q.** And the “Plant response rating, Ducksalad” value ([20]; Rate 250 g/ha)?
**A.** 100

**Q.** And the “Plant response rating (scale 0 to 100), Ducksalad” value [20]?
**A.** 50

**Q.** And the “Rice plant response rating” value (rice (Oryza saliva) [21])?
**A.** 90

**Q.** What about the “Plant response rating, Rice” value (rice (Oryza saliva) [21]; Rate 125 g/ha) of the same molecule?
**A.** 70

**Q.** And the “Plant response rating, Rice” value (rice (Oryza saliva) [21]; Rate 250 g/ha)?
**A.** 90

**Q.** What about the “Plant response rating (scale 0 to 100), Rice” value (rice (Oryza saliva) [21]) of the same molecule?
**A.** 60

**Q.** And the “Flatsedge plant response rating” value [22]?
**A.** 100

**Q.** And the “Plant response rating, Flatsedge” value ([22]; Rate 125 g/ha)?
**A.** 100

**Q.** And the “Plant response rating, Flatsedge” value ([22]; Rate 250 g/ha)?
**A.** 100

**Q.** And the “Plant response rating (scale 0 to 100), Flatsedge” value [22]?
**A.** 100

**Q.** And the “Plant response rating (0 to 100), Nightshade” value (Nightshade)?
**A.** 90

**Q.** And the “Plant response rating, Sunflower” value (Sunflower)?
**A.** 0

**Q.** What does the source list for CCC(C)c1ccn(C2OCN(c3cccc(OC(F)F)c3)C2=O)n1 (stereo not drawn) [Compound 134]?
**A.** Plant response rating, Surinam grass [1, 23]: 20; Plant response rating, Surinam grass [1, 24]: 60; Plant response rating, Barnyardgrass [2, 23]: 90; Plant response rating, Barnyardgrass [2, 24]: 100; Plant response rating, Blackgrass [3, 23]: 0; Plant response rating, Blackgrass [3, 24]: 0; Plant response rating, Cocklebur [4, 23]: 30; Plant response rating, Cocklebur [4, 24]: 30; Plant response rating, Crabgrass [5]: 20; Plant response rating, Lambsquarters [6]: 100; Plant response rating, Morningglory [7]: 10; Plant response rating, Pigweed [8]: 60; Plant response rating, Wild Oat (wild oat (Avena fatua)): 0; Plant response rating, Surinam grass [9, 25]: 100; Plant response rating, Surinam grass [9, 26]: 90; Plant response rating, Barnyardgrass [10, 25]: 100; Plant response rating, Barnyardgrass [10, 26]: 100; Plant response rating, Cocklebur [11, 25]: 0; Plant response rating, Cocklebur [11, 26]: 0; Plant response rating, Corn (corn (Zea mays); [25]): 90; Plant response rating, Corn (corn (Zea mays); [26]): 20; Plant response rating, Crabgrass [12, 25]: 100; Plant response rating, Crabgrass [12, 26]: 100; Plant response rating, Foxtail, Giant [13, 25]: 100; Plant response rating, Foxtail, Giant [13, 26]: 100; Plant response rating, Lambsquarters [14, 25]: 100; Plant response rating, Lambsquarters [14, 26]: 100; Plant response rating, Morningglory [15, 25]: 0; Plant response rating, Morningglory [15, 26]: 0; Plant response rating, Pigweed [16, 25]: 100; Plant response rating, Pigweed [16, 26]: 100; Plant response rating, Rice (rice (Oryza saliva) [17]; [25]): 100; Plant response rating, Rice (rice (Oryza saliva) [17]; [26]): 100; Plant response rating, Velvetleaf [18, 25]: 0; Plant response rating, Velvetleaf [18, 26]: 0; Barnyardgrass plant response rating [19]: 100; Plant response rating, Barnyardgrass ([19]; Rate 125 g/ha): 100; Plant response rating, Barnyardgrass ([19]; Rate 250 g/ha): 100; Plant response rating (scale 0 to 100), Barnyardgrass [19]: 100; Ducksalad plant response rating [20]: 100; Plant response rating, Ducksalad ([20]; Rate 125 g/ha): 90; Plant response rating, Ducksalad ([20]; Rate 250 g/ha): 100; Plant response rating (scale 0 to 100), Ducksalad [20]: 60; Rice plant response rating (rice (Oryza saliva) [21]): 90; Plant response rating, Rice (rice (Oryza saliva) [21]; Rate 125 g/ha): 60; Plant response rating, Rice (rice (Oryza saliva) [21]; Rate 250 g/ha): 90; Plant response rating (scale 0 to 100), Rice (rice (Oryza saliva) [21]): 0; Flatsedge plant response rating [22]: 100; Plant response rating, Flatsedge ([22]; Rate 125 g/ha): 100; Plant response rating, Flatsedge ([22]; Rate 250 g/ha): 100; Plant response rating (scale 0 to 100), Flatsedge [22]: 90; Plant response rating (0 to 100), Nightshade (Nightshade): 90; Plant response rating, Sunflower (Sunflower): 0
